This is an account of results in ChEMBL document CHEMBL1201862, “PubChem BioAssay data set” (2004).

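Five concentrations, 48 hours, 96-well plates. GI50 = concentration required for 50% inhibition of growth.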 The source made the active and inactive calls. Rule as the data show it: active = GI50 up to about 1.1 µM and inactive = higher.

Among the test systems are T47D; CAKI-1; BT-549; U-251; UACC-62; SNB-75; MCF7; KM12; OVCAR-3; PC-3; HCT-15; Malme-3M; M14; 786-0; NCI-H522; OVCAR-5; A549; SNB-19; OVCAR-4; KM-20L2.
What all share (experiment): NCI tumour cell line growth inhibition, 48 h

Consider `Cc1nc2c(ccc3[nH]c4ccccc4c32)s1`, for which the GI50 with T47D was 20.2 µM (inactive); with CAKI-1, 47.5 µM (inactive); in the test on BT-549, 19.1 µM (inactive); with U-251, 20.5 µM (inactive); with UACC-62, 18.4 µM (inactive); in the test with SNB-75, 32.9 µM (inactive). The GI50 in the test on MCF7 was 26.7 µM (inactive); in the test on KM12, 25.5 µM (inactive); in the test on OVCAR-3, 20.6 µM (inactive); in the test on PC-3, 17.7 µM (inactive); with HCT-15 it was 18.8 µM; with Malme-3M, 31.4 µM (inactive). In addition, the GI50 in the test with M14 is 18.9 µM (inactive); in the test with 786-0, 26.1 µM (inactive); in the test with NCI-H522 it was 15.9 µM (inactive); with OVCAR-5, 19.3 µM (inactive); with A549 it was 28.4 µM (inactive); with SNB-19, 37.8 µM (inactive). In the test on OVCAR-4, the GI50 is 25.5 µM (inactive).
On to `C/C(=N/NS(=O)(=O)c1c(C)cc(C)cc1C)c1cccc[n+]1[O-]`, for which the GI50 was > 100 µM (inactive) with CAKI-1; > 100 µM (inactive) with U-251; > 100 µM (inactive) in the test on UACC-62; > 100 µM (inactive) with KM-20L2; 76.2 µM (inactive) in the test on SNB-75; > 100 µM (inactive) in the test on KM12. Besides, the GI50 in the test with OVCAR-3 is > 100 µM (inactive); in the test on HCT-15, more than 100 µM; in the test on M14, > 100 µM (inactive); in the test on 786-0, > 100 µM (inactive); in the test with NCI-H522 it was 83.4 µM (inactive); in the test on OVCAR-5, > 100 µM (inactive). Besides, the GI50 in the test with A549, in the test on SNB-19 and in the test on OVCAR-4 was > 100 µM (inactive) in each case.
For the compound `CN(C)C1=Nc2ccccc2C(=S)N2CSCC12` (stereo unspecified), the GI50 in the test with T47D was 89.5 µM (inactive); with CAKI-1, 20.9 µM (inactive); in the test on BT-549 it was 78.5 µM (inactive); with U-251 it was 35.6 µM (inactive); in the test on UACC-62, 75.5 µM (inactive); with SNB-75 it was 57.3 µM (inactive). Moreover, the GI50 in the test on MCF7 was 47.3 µM (inactive); in the test on KM12, > 100 µM (inactive); with OVCAR-3, 32.7 µM (inactive); with PC-3, > 100 µM (inactive); with HCT-15 it was 34 µM; with Malme-3M, 32.7 µM (inactive). Besides, the GI50 is 66.2 µM (inactive) with M14; 25.9 µM (inactive) in the test on 786-0; 14.6 µM (inactive) in the test on NCI-H522; > 100 µM (inactive) in the test on OVCAR-5; > 100 µM (inactive) in the test on A549; > 100 µM (inactive) in the test on SNB-19. Moreover, the GI50 with OVCAR-4 was > 100 µM (inactive).
For the compound `CO[P@@]1(=O)O[C@@H](c2ccccc2)[C@H](O)[C@@]1(O)c1ccccc1`, the GI50 in the test on T47D, in the test on CAKI-1, in the test on BT-549, in the test with U-251, in the test on UACC-62 and in the test on SNB-75 was > 100 µM (inactive) each time. Moreover, the GI50 with MCF7 was > 100 µM (inactive); in the test with KM12 it was > 100 µM (inactive); with OVCAR-3 it was > 100 µM (inactive); with PC-3, > 100 µM (inactive); in the test on HCT-15 it was more than 100 µM; in the test on Malme-3M, > 100 µM (inactive). In addition, the GI50 in the test with M14, with 786-0, in the test with NCI-H522, in the test on OVCAR-5, in the test with A549 and with SNB-19 was > 100 µM (inactive) in each case. The GI50 in the test on OVCAR-4 is > 100 µM (inactive).
Turning to `O=C(CCCC1Cc2ccccc2C1=O)c1ccccc1` (stereo unspecified), the GI50 in the test on T47D was 33.3 µM (inactive); in the test with CAKI-1, > 100 µM (inactive); with BT-549, 38.6 µM (inactive); with U-251, 38.6 µM (inactive); in the test with UACC-62, 69.5 µM (inactive); with SNB-75, 70.5 µM (inactive). Moreover, the GI50 was 31.2 µM (inactive) in the test on MCF7; 96.4 µM (inactive) with KM12; 47.4 µM (inactive) in the test on OVCAR-3; 35.1 µM (inactive) in the test with PC-3; 74.8 µM in the test with HCT-15; 44.2 µM (inactive) in the test with Malme-3M. The GI50 is 99.8 µM (inactive) with M14; > 100 µM (inactive) with 786-0; 52.7 µM (inactive) in the test with NCI-H522; > 100 µM (inactive) with OVCAR-5; 50 µM (inactive) in the test on A549; 89.9 µM (inactive) with SNB-19. Also, in the test on OVCAR-4, the GI50 was 59.3 µM (inactive).
For the compound `CCOC(=O)C(C(N)=O)C1=Nc2cc([N+](=O)[O-])ccc2N/C1=C\C(=O)c1ccc(C)cc1` (stereo unspecified), the GI50 with T47D was 60.1 µM (inactive); in the test with CAKI-1 it was 46.6 µM (inactive); with BT-549, 22.6 µM (inactive); in the test with U-251 it was 15.5 µM (inactive); in the test with UACC-62, 30.3 µM (inactive); in the test with SNB-75 it was 16.1 µM (inactive). In addition, the GI50 is 22.4 µM (inactive) with MCF7; 31.2 µM (inactive) in the test with KM12; 15.8 µM (inactive) in the test on OVCAR-3; 20 µM (inactive) in the test with PC-3; 28.8 µM in the test with HCT-15; 35.3 µM (inactive) in the test with Malme-3M. For the same compound, the GI50 in the test with M14 was 38.3 µM (inactive); with 786-0, 13.1 µM (inactive); in the test on NCI-H522, 17.7 µM (inactive); in the test with OVCAR-5, 70.8 µM (inactive); in the test on A549, 26.9 µM (inactive); with SNB-19, 20.7 µM (inactive). Besides, the GI50 in the test with OVCAR-4 was 43.6 µM (inactive).
Regarding `CC(=O)OCCOCNC(=S)N/N=C/c1ccc([N+](=O)[O-])s1`, the GI50 in the test on U-251 was 32.1 µM (inactive); in the test on UACC-62, 24.3 µM (inactive); in the test on KM-20L2 it was 32.4 µM (inactive); in the test on SNB-75, > 100 µM (inactive); with KM12, 34.4 µM (inactive); in the test with OVCAR-3, 29.3 µM (inactive). Besides, the GI50 in the test on HCT-15 is 30.4 µM; in the test with Malme-3M, 48.4 µM (inactive); in the test with M14, 40 µM (inactive); with 786-0 it was > 100 µM (inactive); in the test on NCI-H522, 11.2 µM (inactive); with OVCAR-5, 37.3 µM (inactive). Further, the GI50 with A549 is 43.4 µM (inactive); in the test with SNB-19 it was > 100 µM (inactive); with OVCAR-4, 64.1 µM (inactive).
As to `O=C(Nc1ccc(Cl)cc1)C(=O)C1=C(O)c2ccccc2OC1`, the GI50 is > 100 µM (inactive) in the test on T47D; > 100 µM (inactive) in the test on CAKI-1; > 100 µM (inactive) in the test on BT-549; > 100 µM (inactive) with U-251; > 100 µM (inactive) in the test with UACC-62; 33.1 µM (inactive) in the test with SNB-75. In addition, the GI50 was > 100 µM (inactive) with MCF7; 80.5 µM (inactive) in the test on KM12; > 100 µM (inactive) in the test with OVCAR-3; > 100 µM (inactive) in the test with PC-3; more than 100 µM in the test on HCT-15; 0.665 µM (active) with Malme-3M. In addition, the GI50 in the test on M14, in the test on 786-0, with NCI-H522, in the test with OVCAR-5, in the test with A549 and with SNB-19 was > 100 µM (inactive) throughout. For the same compound, the GI50 in the test with OVCAR-4 is > 100 µM (inactive).
`N#Cc1cc2c(n(C3OC(CO)C(O)C(O)C3O)c1=S)CCC2` (stereo unspecified): the GI50 in the test with T47D is > 100 µM (inactive); with CAKI-1 it was > 100 µM (inactive); in the test on BT-549, > 100 µM (inactive); in the test with U-251 it was > 100 µM (inactive); in the test with UACC-62, > 100 µM (inactive); in the test with SNB-75, 97.3 µM (inactive). Moreover, the GI50 in the test on MCF7 is > 100 µM (inactive); in the test on KM12, > 100 µM (inactive); with OVCAR-3, > 100 µM (inactive); with PC-3, > 100 µM (inactive); with HCT-15, more than 100 µM; with Malme-3M, > 100 µM (inactive). The GI50 in the test with M14, in the test with 786-0, in the test on NCI-H522, in the test with OVCAR-5, in the test with A549 and in the test on SNB-19 was > 100 µM (inactive) each time. Further, in the test on OVCAR-4, the GI50 was > 100 µM (inactive).
For the compound `CCN(CC)COC(=S)S`, the GI50 with T47D was > 100 µM (inactive); in the test with CAKI-1, > 67 µM (inactive); in the test on BT-549, > 94.6 µM (inactive); with U-251, 30.3 µM (inactive); with UACC-62, > 83 µM (inactive); in the test with SNB-75 it was 30.5 µM (inactive). The GI50 is > 100 µM (inactive) with MCF7; > 76.2 µM (inactive) in the test on KM12; 0.0516 µM (active) in the test with OVCAR-3; 33.3 µM (inactive) in the test on PC-3; more than 100 µM in the test on HCT-15; 55.8 µM (inactive) in the test on Malme-3M. Further, the GI50 is 44.1 µM (inactive) with M14; 33.3 µM (inactive) in the test with 786-0; 3.61 µM (inactive) in the test with NCI-H522; > 100 µM (inactive) with OVCAR-5; > 100 µM (inactive) in the test with A549; > 100 µM (inactive) with SNB-19. Moreover, the GI50 in the test on OVCAR-4 was 48.8 µM (inactive).
Consider `CN(C)c1ccc2cc3ccc(N(C)C)cc3nc2c1` [ACRIDINE ORANGE], for which the GI50 is 12.1 µM (inactive) in the test on T47D; 1.79 µM (inactive) with CAKI-1; 6.78 µM (inactive) in the test on BT-549; 1.24 µM (inactive) in the test on U-251; 4.05 µM (inactive) in the test on UACC-62; 2.1 µM (inactive) with SNB-75. Besides, the GI50 with MCF7 is 0.714 µM (active); with KM12 it was 0.488 µM (active); with OVCAR-3 it was 2.95 µM (inactive); in the test on PC-3 it was 2.04 µM (inactive); with HCT-15, 0.467 µM; with Malme-3M, 3.86 µM (inactive). Moreover, the GI50 was 3.05 µM (inactive) in the test with M14; 0.638 µM (active) in the test with 786-0; 1.58 µM (inactive) in the test on NCI-H522; 2.75 µM (inactive) in the test on OVCAR-5; 0.927 µM (active) with A549; 0.984 µM (active) in the test with SNB-19. Moreover, in the test with OVCAR-4, the GI50 is 0.853 µM (active).
